Test results as given in PubChem BioAssay (NCI).
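Each compound was tested at five concentrations against cells in 96-well plates for 48 hours. GI50 is the concentration that inhibits growth by half. TGI: total growth inhibition.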

What was measured:
Assay in all cases: NCI tumour cell line growth inhibition, 48 h
[1] = test system: HCT-116 colon
[2] = test system: SNB-75 CNS
[3] = test system: CAKI-1 renal
[4] = test system: A498 renal
[5] = test system: NCI-H522 lung
[6] = test system: ACHN renal
[7] = test system: COLO 205 colon
[8] = test system: T-47D breast
[9] = test system: CCRF-CEM leukemia
[10] = test system: MDA-MB-231 breast
[11] = test system: HOP-62 NSCLC
[12] = test system: SF-539 CNS
[13] = test system: BT-549 breast
[14] = test system: A549 NSCLC
[15] = test system: TK-10 renal
[16] = test system: M14 melanoma
[17] = test system: KM12 colon
[18] = test system: 786-0 renal
[19] = test system: UACC-62 melanoma
[20] = test system: PC-3 prostate
[21] = test system: NCI-H23 lung
[22] = test system: U251 CNS
[23] = test system: LOX IMVI melanoma
[24] = test system: DU-145 prostate
[25] = test system: SK-OV-3 ovarian
[26] = test system: HS 578T breast
[27] = test system: HT29 colon
[28] = test system: HL-60(TB) leukemia
[29] = test system: MDA-MB-435
[30] = test system: NCI-H460 lung
[31] = test system: SK-MEL-28 melanoma
[32] = test system: HCT-15 colon
[33] = test system: IGROV1 ovarian
[34] = test system: MALME-3M melanoma
[35] = test system: SNB-19 CNS
[36] = test system: HOP-92 NSCLC
[37] = test system: OVCAR-5 ovarian
[38] = test system: K-562 leukemia
[39] = test system: EKVX NSCLC
[40] = test system: MOLT-4 leukemia
[41] = test system: RPMI-8226 leukemia
[42] = test system: OVCAR-8 ovarian
[43] = test system: MCF7 breast
[44] = test system: HCC-2998 colon
[45] = test system: NCI-H226 lung
[46] = test system: SF-295 CNS
[47] = test system: UACC-257 melanoma
[48] = test system: NCI/ADR-RES ovarian
[49] = test system: OVCAR-3 ovarian
[50] = test system: UO-31 renal
[51] = test system: OVCAR-4 ovarian
[52] = test system: SK-MEL-2 melanoma
[53] = test system: SN12C renal
[54] = test system: SW-620 colon
[55] = test system: SR leukemia
[56] = test system: RXF 393 renal
[57] = test system: SF-268 CNS
[58] = test system: SK-MEL-5 melanoma

## CN1CCN(c2ccc(NC(=O)Nc3ccc4c(ccn4-c4cccc(C(N)=O)n4)c3)cc2C(F)(F)F)CC1
[1]
  GI50: 0.858 µM
  TGI: 1.84 µM
[2]
  GI50: 5.06 µM
  TGI: 11.9 µM
[3]
  GI50: 6.47 µM
  TGI: 13.5 µM
[4]
  GI50: 7.74 µM
  TGI: 14.8 µM
[5]
  GI50: 10.1 µM
  TGI: 20.8 µM
[6]
  GI50: 6.95 µM
  TGI: 14.1 µM
[7]
  GI50: 5.91 µM
  TGI: 15.4 µM
[8]
  GI50: 9.33 µM
  TGI: 22.8 µM
[9]
  GI50: 1.4 µM
  TGI: 3.18 µM
[10]
  GI50: 6.53 µM
  TGI: 19.1 µM
[11]
  GI50: 5.89 µM
  TGI: 12.9 µM
[12]
  GI50: 1.92 µM
  TGI: 8.07 µM
[13]
  GI50: 5.21 µM
  TGI: 12.5 µM
[14]
  GI50: 5.2 µM
  TGI: 13.3 µM
[15]
  GI50: 8.51 µM
  TGI: 16.3 µM
[16]
  GI50: 0.991 µM
  TGI: 2.21 µM
[17]
  GI50: 2.25 µM
  TGI: 9.23 µM
[18]
  GI50: 0.834 µM
  TGI: 2 µM
[19]
  GI50: 5.65 µM
  TGI: 13.8 µM
[20]
  GI50: 3.34 µM
  TGI: 11 µM
[21]
  GI50: 7.61 µM
  TGI: 19.3 µM
[22]
  GI50: 1.33 µM
  TGI: 6.64 µM
[23]
  GI50: 0.969 µM
  TGI: 2.03 µM
[24]
  GI50: 5.97 µM
  TGI: 14.5 µM
[25]
  GI50: 7.14 µM
  TGI: 13.8 µM
[26]
  GI50: 2.68 µM
  TGI: 12.5 µM
[27]
  GI50: 1.29 µM
  TGI: 5.5 µM
[28]
  GI50: 5.59 µM
  TGI: 13.5 µM
[29]
  GI50: 1.13 µM
  TGI: 2.82 µM
[30]
  GI50: 1.74 µM
  TGI: 5.88 µM
[31]
  GI50: 0.939 µM
  TGI: 1.91 µM
[32]
  GI50: 1.66 µM
  TGI: 7.33 µM
[33]
  GI50: 9.04 µM
  TGI: 20.4 µM
[34]
  GI50: 1.37 µM
  TGI: 3.79 µM
[35]
  GI50: 5.99 µM
  TGI: 16.4 µM
[36]
  GI50: 6.91 µM
  TGI: 15.8 µM
[37]
  GI50: 7.54 µM
  TGI: 17 µM
[38]
  GI50: 0.938 µM
  TGI: 2.17 µM
[39]
  GI50: 6.9 µM
  TGI: 16.3 µM
[40]
  GI50: 1.02 µM
  TGI: 2.24 µM
[41]
  GI50: 1.17 µM
  TGI: 2.65 µM
[42]
  GI50: 10.1 µM
  TGI: 25.1 µM
[43]
  GI50: 0.878 µM
  TGI: 2.02 µM
[44]
  GI50: 6.28 µM
  TGI: 14 µM
[45]
  GI50: 8.61 µM
  TGI: 20.4 µM
[46]
  GI50: 0.969 µM
  TGI: 2.15 µM
[47]
  GI50: 1.11 µM
  TGI: 2.66 µM
[48]
  GI50: 9.47 µM
  TGI: 24.2 µM
[49]
  GI50: 8.35 µM
  TGI: 16.4 µM
[50]
  GI50: 7.38 µM
  TGI: 15.6 µM
[51]
  GI50: 8.09 µM
  TGI: 21.9 µM
[52]
  GI50: 5.17 µM
  TGI: 12.4 µM
[53]
  GI50: 8.1 µM
  TGI: 18.5 µM
[54]
  GI50: 1.27 µM
  TGI: 2.91 µM
[55]
  GI50: 0.929 µM
  TGI: 2.48 µM
[56]
  GI50: 1.06 µM
  TGI: 2.5 µM
[57]
  GI50: 6.71 µM
  TGI: 18 µM
[58]
  GI50: 0.964 µM
  TGI: 2.08 µM
